The numbers were not newly measured in patent US9433581B2, “Poly(vinyl benzoate) nanoparticles for molecular delivery” (University of South Florida, priority 2010, dated 2016), which cites them from elsewhere.

For this data set the following is noted: octanol/water, reported in the literature.

As a reminder, the Log P is the decadic logarithm of the partition coefficient of the neutral form, usually between octanol and water. In the case of 5(6)-carboxyfluorescein, the “Log P” value is listed as 5.43.

`CCN(CC)c1ccc2cc(-c3nc4ccccc4s3)c(=O)oc2c1` [Coumarin-6, coumarin-6]: the log partition coefficient (Log P) is −3.45.
